Literature values in patent US20200330379A1, “NON-ORAL CANNABINOID FORMULATION AND METHOD OF TREATMENT” (Navinta NV, Inc., priority 2019, published 2020).

Conditions: limited by first-pass metabolism

## CCCCCc1cc(O)c2c(c1)OC(C)(C)[C@@H]1CCC(C)=C[C@@H]21 [THC, (6aR,10aR)-6,6,9-trimethyl-3-pentyl-6a,7,8,10a-tetrahydro-6H-benzo[c]-chromen-1-ol]
  Oral bioavailability: 10% and 20
